In ChEMBL document CHEMBL4414638, “Structure-Activity Relationship of Peptide-Conjugated Chloramphenicol for Inhibiting Escherichia coli” (J Med Chem, 2019):
Values after ≈ are worked out from the molar mass of the structure shown. *1 amine or outer side, *2 acyl side, *3 side chain or, on linkers, in order; H or OH if unused. Where a SMILES comes first, the peptide text is derived from it. [ ]: non-standard residue; d: D form. The star is where a group is joined. X1 = O=C(CCC(=O)[*:2])OC[C@@H](N[*:1])[C@H](O)c1ccc([N+](=O)[O-])cc1; Dichloroacetyl = O=C(C(Cl)Cl)*

Assays:
Escherichia coli = assay: Antibacterial activity against Escherichia coli K-12 assessed as reduction in bacterial growth incubated for 16 hrs; assay type: functional; settings: K-12, 16 h
[1] = Cytotoxicity in human HS5 cells assessed as reduction in cell viability at 20 uM to 2 mM incubated up to […]rs relative to chloramphenicol; assay type: cell-based
HEK293 = assay: Cytotoxicity in human HEK293 cells assessed as reduction in cell viability at 20 uM […] relative to chloramphenicol; assay type: cell-based; settings: hek293, 20 µM

Compound | MIC (Escherichia coli) | Activity [1] | Activity (HEK293)
CC(C)C[C@@H](NC(=O)CNC(=O)CCC(=O)OC[C@@H](NC(=O)C(Cl)Cl)[C@H](O)c1ccc([N+](=O)[O-])cc1)C(=O)O | 20 µM (≈ 11.9 µg/mL) | Non-Toxic | Toxic
O=C(O)CNC(=O)CNC(=O)CNC(=O)CNC(=O)CCC(=O)OC[C@@H](NC(=O)C(Cl)Cl)[C@H](O)c1ccc([N+](=O)[O-])cc1 (Dichloroacetyl-[X1]GGGG-OH) | 20 µM (≈ 13 µg/mL) | Non-Toxic | Toxic
O=C(O)C[C@H](NC(=O)CNC(=O)CCC(=O)OC[C@@H](NC(=O)C(Cl)Cl)[C@H](O)c1ccc([N+](=O)[O-])cc1)C(=O)O | 20 µM (≈ 11.9 µg/mL) | Non-Toxic | Toxic
O=C(O)CNC(=O)CNC(=O)[C@@H](Cc1ccc2ccccc2c1)NC(=O)[C@@H](Cc1ccccc1)NC(=O)[C@@H](Cc1ccccc1)NC(=O)CCC(=O)OC[C@@H](NC(=O)C(Cl)Cl)[C@H](O)c1ccc([N+](=O)[O-])cc1 | > 200 µM | – | –
O=C(CCC(=O)OC[C@@H](NC(=O)C(Cl)Cl)[C@H](O)c1ccc([N+](=O)[O-])cc1)NCCS(=O)(=O)O | 40 µM (≈ 21.2 µg/mL) | – | –
O=C(CCC(=O)OC[C@@H](NC(=O)C(Cl)Cl)[C@H](O)c1ccc([N+](=O)[O-])cc1)NCC(=O)NCC(=O)N[C@@H](Cc1ccccc1)C(=O)N[C@@H](Cc1ccccc1)C(=O)O | 20 µM (≈ 16.6 µg/mL) | Non-Toxic | Toxic
O=C(O)C[C@@H](NC(=O)[C@@H](CC(=O)O)NC(=O)CCC(=O)OC[C@@H](NC(=O)C(Cl)Cl)[C@H](O)c1ccc([N+](=O)[O-])cc1)C(=O)O | > 200 µM | – | –
O=C(CCC(=O)OC[C@@H](NC(=O)C(Cl)Cl)[C@H](O)c1ccc([N+](=O)[O-])cc1)N[C@H](Cc1ccccc1)C(=O)N[C@H](Cc1ccccc1)C(=O)O | 100 µM (≈ 71.8 µg/mL) | – | –
O=C(CCC(=O)OC[C@@H](NC(=O)C(Cl)Cl)[C@H](O)c1ccc([N+](=O)[O-])cc1)NCC(=O)NCC(=O)N[C@@H](Cc1ccccc1)C(=O)O | 20 µM (≈ 13.7 µg/mL) | Non-Toxic | Toxic
C[C@H](NC(=O)[C@H](C)NC(=O)[C@H](C)NC(=O)CCC(=O)OC[C@@H](NC(=O)C(Cl)Cl)[C@H](O)c1ccc([N+](=O)[O-])cc1)C(=O)O | 100 µM (≈ 63.6 µg/mL) | – | –

The next lines start with results.

MIC (Escherichia coli) | Compound | Activity [1] | Activity (HEK293)
200 µM (≈ 206 µg/mL) | N=C(N)NCCC[C@@H](NC(=O)[C@@H](CCCNC(=N)N)NC(=O)[C@@H](Cc1ccccc1)NC(=O)[C@@H](Cc1ccccc1)NC(=O)CCC(=O)OC[C@@H](NC(=O)C(Cl)Cl)[C@H](O)c1ccc([N+](=O)[O-])cc1)C(=O)O | – | –
20 µM (≈ 13.7 µg/mL) | O=C(O)CNC(=O)[C@H](Cc1ccccc1)NC(=O)CNC(=O)CCC(=O)OC[C@@H](NC(=O)C(Cl)Cl)[C@H](O)c1ccc([N+](=O)[O-])cc1 | Non-Toxic | Toxic
80 µM (≈ 45.2 µg/mL) | C[C@@H](NC(=O)[C@@H](C)NC(=O)CCC(=O)OC[C@@H](NC(=O)C(Cl)Cl)[C@H](O)c1ccc([N+](=O)[O-])cc1)C(=O)O | – | –
> 200 µM | O=C(O)CC[C@@H](NC(=O)[C@@H](CCC(=O)O)NC(=O)CCC(=O)OC[C@@H](NC(=O)C(Cl)Cl)[C@H](O)c1ccc([N+](=O)[O-])cc1)C(=O)O | – | –
200 µM (≈ 147 µg/mL) | N=C(N)NCCC[C@@H](NC(=O)[C@@H](CCCNC(=N)N)NC(=O)CCC(=O)OC[C@@H](NC(=O)C(Cl)Cl)[C@H](O)c1ccc([N+](=O)[O-])cc1)C(=O)O | – | –
> 200 µM | C[C@@H](NC(=O)CCC(=O)OC[C@@H](NC(=O)C(Cl)Cl)[C@H](O)c1ccc([N+](=O)[O-])cc1)C(=O)O | – | –
